Test results: patent US20200024278A1, “COMPOSITION COMPRISING ANTIBIOTIC COMPOUND AND AN HETEROCYCLIC COMPOUND AND THEIR USE IN PREVENTING OR TREATING BACTERIAL INFECTIONS” (MUTABILIS, priority 2016, published 2020)
Like-named read-outs stand apart in the source and are kept apart here.

Experiments:
Assay in all cases: MIC, broth microdilution (CLSI), substance alone or ATB combined with compound at 4 or 8 μg/mL
KPN 6299 = type: cell-based, K. pneumoniae; details: for MIC: Klebsiella pneumoniae
Procedure, shortened: (§1)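 Antibiotic MICs were determined in presence of fixed compound at 4 or 8 μg/mL, and compound MICs alone, by visual growth inhibition. Inoculum 5·10^5 CFU/mL in ca-MHB, incubated 35 °C for 16-20 h per CLSI-M7-A7. Glucose-6-phosphate (25 μg/ml) added when fosfomycin was tested.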

KPN BAA-1898 = type: cell-based, K. pneumoniae; details: for MIC: Klebsiella pneumoniae, BAA1898
Procedure, shortened: as §1

KPN UFR42 = type: cell-based, K. pneumoniae; details: for MIC: Klebsiella pneumoniae
Procedure, shortened: as §1

ECO UFR39 = type: cell-based, E. coli; details: for MIC: Escherichia coli
Procedure, shortened: as §1

ECO 190317 = type: cell-based, E. coli; details: for MIC: Escherichia coli
Procedure, shortened: as §1

PAE 105250 = type: cell-based, P. aeruginosa; details: PAE 105250
Procedure, shortened: as §1

C=CC1=C(C(=O)O)N2C(=O)[C@@H](NC(=O)/C(=N\OCC(=O)O)c3csc(N)n3)[C@H]2SC1 [FIX, Cefixime, reference compound]
MIC (KPN 6299; antibiotic alone, read-out: MIC ATB alone): 16 µg/mL
MIC (KPN 6299; substance alone, read-out: MIC): 16 µg/mL
MIC ATB combined with Example 1 @8 μg/ml (KPN 6299; with Example 1 @8 μg/ml): 0.063 µg/mL
MIC ATB combined with Example 1 @8 μg/ml (KPN 6299; with Example 1 at 8 μg/ml): 0.063 µg/mL
MIC ATB combined with Example 7 @8 μgml (KPN 6299; with Example 7 at 8 μg/ml): 0.063 µg/mL
MIC ATB combined with Example 9 @4 μg/ml (KPN 6299; with Example 9 @4 μg/ml): <=0.031 μg/mL
MIC ATB combined with Example 9 @4 μg/ml (KPN 6299; with Example 9 at 4 μg/ml): <=0.031 μg/mL
MIC ATB combined with Example 11 @8 μg/ml (KPN 6299; with Example 11 at 8 μg/ml): <0.031 µg/mL
MIC ATB combined with Example 12 @8 μg/ml (KPN 6299; with Example 12 at 8 μg/ml): <0.031 µg/mL
MIC ATB combined with Example 13 @8 μg/ml (KPN 6299; with Example 13 at 8 μg/ml): <=0.031 μg/mL
MIC ATB combined with Example 14 @8 μg/ml (KPN 6299; with Example 14 at 8 μg/ml): <0.031 µg/mL
MIC ATB combined with Example 15 @4 μgml (KPN 6299; with Example 15 at 4 μg/ml): <0.031 µg/mL
MIC ATB combined with Example 16 @4 μg/ml (KPN 6299; with Example 16 at 4 μg/ml): <0.031 µg/mL
MIC ATB combined with Example 1 @8 μg/ml (KPN BAA-1898; KPN BAA-1898, with Example 1 @8 μg/ml): 0.25 µg/mL
MIC ATB combined with Example 1 @8 μg/ml (KPN BAA-1898; KPN BAA-1898, with Example 1 at 8 μg/ml): 0.25 µg/mL
MIC ATB combined with Example 7 @8 μgml (KPN BAA-1898; KPN BAA-1898, with Example 7 at 8 μg/ml): 0.25 µg/mL
MIC ATB combined with Example 9 @4 μg/ml (KPN BAA-1898; KPN BAA-1898, with Example 9 @4 μg/ml): <0.031 µg/mL
MIC ATB combined with Example 9 @4 μg/ml (KPN BAA-1898; KPN BAA-1898, with Example 9 at 4 μg/ml): <0.031 µg/mL
MIC ATB combined with Example 11 @8 μg/ml (KPN BAA-1898; KPN BAA-1898, with Example 11 at 8 μg/ml): <0.031 µg/mL
MIC ATB combined with Example 12 @8 μg/ml (KPN BAA-1898; KPN BAA-1898, with Example 12 at 8 μg/ml): <0.031 µg/mL
MIC ATB combined with Example 13 @8 μg/ml (KPN BAA-1898; KPN BAA-1898, with Example 13 at 8 μg/ml): 0.5 µg/mL
MIC ATB combined with Example 14 @8 μg/ml (KPN BAA-1898; KPN BAA-1898, with Example 14 at 8 μg/ml): <0.031 µg/mL
MIC ATB combined with Example 15 @4 μgml (KPN BAA-1898; KPN BAA-1898, with Example 15 at 4 μg/ml): <0.031 µg/mL
MIC ATB combined with Example 16 @4 μg/ml (KPN BAA-1898; KPN BAA-1898, with Example 16 at 4 μg/ml): <0.031 µg/mL
MIC (KPN BAA-1898): > 128 µg/mL
MIC (KPN BAA-1898; KPN BAA-1898, antibiotic alone, read-out: MIC ATB alone): > 512 µg/mL
MIC ATB combined with Example 1 @8 μg/ml (KPN UFR42; KPN UFR42, with Example 1 @8 μg/ml): >32 µg/mL
MIC ATB combined with Example 1 @8 μg/ml (KPN UFR42; KPN UFR42, with Example 1 at 8 μg/ml): >32 µg/mL
MIC ATB combined with Example 7 @8 μgml (KPN UFR42; KPN UFR42, with Example 7 at 8 μg/ml): >32 µg/mL
MIC ATB combined with Example 9 @4 μg/ml (KPN UFR42; KPN UFR42, with Example 9 @4 μg/ml): >32 µg/mL
MIC ATB combined with Example 9 @4 μg/ml (KPN UFR42; KPN UFR42, with Example 9 at 4 μg/ml): >32 µg/mL
MIC ATB combined with Example 11 @8 μg/ml (KPN UFR42; KPN UFR42, with Example 11 at 8 μg/ml): <0.031 µg/mL
MIC ATB combined with Example 12 @8 μg/ml (KPN UFR42; KPN UFR42, with Example 12 at 8 μg/ml): <0.031 µg/mL
MIC ATB combined with Example 13 @8 μg/ml (KPN UFR42; KPN UFR42, with Example 13 at 8 μg/ml): >32 µg/mL
MIC ATB combined with Example 14 @8 μg/ml (KPN UFR42; KPN UFR42, with Example 14 at 8 μg/ml): <0.031 µg/mL
MIC ATB combined with Example 15 @4 μgml (KPN UFR42; KPN UFR42, with Example 15 at 4 μg/ml): <0.031 µg/mL
MIC ATB combined with Example 16 @4 μg/ml (KPN UFR42; KPN UFR42, with Example 16 at 4 μg/ml): <0.031 µg/mL
MIC (KPN UFR42): > 128 µg/mL
MIC (KPN UFR42; KPN UFR42, antibiotic alone, read-out: MIC ATB alone): > 256 µg/mL
MIC ATB combined with Example 1 @8 μg/ml (ECO UFR39; ECO UFR39, with Example 1 @8 μg/ml): >32 µg/mL
MIC ATB combined with Example 1 @8 μg/ml (ECO UFR39; ECO UFR39, with Example 1 at 8 μg/ml): >32 µg/mL
MIC ATB combined with Example 7 @8 μgml (ECO UFR39; ECO UFR39, with Example 7 at 8 μg/ml): <0.031 µg/mL
MIC ATB combined with Example 9 @4 μg/ml (ECO UFR39; ECO UFR39, with Example 9 @4 μg/ml): <0.031 µg/mL
MIC ATB combined with Example 9 @4 μg/ml (ECO UFR39; ECO UFR39, with Example 9 at 4 μg/ml): <0.031 µg/mL
MIC ATB combined with Example 11 @8 μg/ml (ECO UFR39; ECO UFR39, with Example 11 at 8 μg/ml): <0.031 µg/mL
MIC ATB combined with Example 12 @8 μg/ml (ECO UFR39; ECO UFR39, with Example 12 at 8 μg/ml): <0.031 µg/mL
MIC ATB combined with Example 13 @8 μg/ml (ECO UFR39; ECO UFR39, with Example 13 at 8 μg/ml): <0.031 µg/mL
MIC ATB combined with Example 14 @8 μg/ml (ECO UFR39; ECO UFR39, with Example 14 at 8 μg/ml): <0.031 µg/mL
MIC ATB combined with Example 15 @4 μgml (ECO UFR39; ECO UFR39, with Example 15 at 4 μg/ml): <0.031 µg/mL
MIC ATB combined with Example 16 @4 μg/ml (ECO UFR39; ECO UFR39, with Example 16 at 4 μg/ml): <0.031 µg/mL
MIC (ECO UFR39): > 128 µg/mL
MIC (ECO UFR39; ECO UFR39, antibiotic alone, read-out: MIC ATB alone): > 512 µg/mL
MIC ATB combined with Example 1 @8 μg/ml (ECO 190317; ECO 190317, with Example 1 @8 μg/ml): <0.031 µg/mL
MIC ATB combined with Example 1 @8 μg/ml (ECO 190317; ECO 190317, with Example 1 at 8 μg/ml): <0.031 µg/mL
MIC ATB combined with Example 7 @8 μgml (ECO 190317; ECO 190317, with Example 7 at 8 μg/ml): <0.031 µg/mL
MIC ATB combined with Example 9 @4 μg/ml (ECO 190317; ECO 190317, with Example 9 @4 μg/ml): <0.031 µg/mL
MIC ATB combined with Example 9 @4 μg/ml (ECO 190317; ECO 190317, with Example 9 at 4 μg/ml): <0.031 µg/mL
MIC ATB combined with Example 11 @8 μg/ml (ECO 190317; ECO 190317, with Example 11 at 8 μg/ml): <0.031 µg/mL
MIC ATB combined with Example 12 @8 μg/ml (ECO 190317; ECO 190317, with Example 12 at 8 μg/ml): <0.031 µg/mL
MIC ATB combined with Example 13 @8 μg/ml (ECO 190317; ECO 190317, with Example 13 at 8 μg/ml): <0.031 µg/mL
MIC ATB combined with Example 14 @8 μg/ml (ECO 190317; ECO 190317, with Example 14 at 8 μg/ml): <0.031 µg/mL
MIC ATB combined with Example 15 @4 μgml (ECO 190317; ECO 190317, with Example 15 at 4 μg/ml): <0.031 µg/mL
MIC ATB combined with Example 16 @4 μg/ml (ECO 190317; ECO 190317, with Example 16 at 4 μg/ml): <0.031 µg/mL
MIC (ECO 190317): > 128 µg/mL
MIC (ECO 190317; ECO 190317, antibiotic alone, read-out: MIC ATB alone): 256 µg/mL
MIC ATB combined with Example 1 @8 μg/ml (PAE 105250; with Example 1 @8 μg/ml): <0.031 µg/mL
MIC ATB combined with Example 1 @8 μg/ml (PAE 105250; with Example 1 at 8 μg/ml): <0.031 µg/mL
MIC ATB combined with Example 7 @8 μgml (PAE 105250; with Example 7 at 8 μg/ml): >32 µg/mL
MIC ATB combined with Example 9 @4 μg/ml (PAE 105250; with Example 9 @4 μg/ml): >32 µg/mL
